Measured values published in ChEMBL document CHEMBL1201862, “PubChem BioAssay data set” (2004).
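Growth conditions: 96-well plates. Treatment: test compound, 48 hours, 5 concentrations. Analysis: linear interpolation between bracketing concentrations; unreached endpoints set to highest concentration. Here, GI50 denotes the concentration required for 50% inhibition of growth.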 Active and inactive are the calls of the source. No stated cut-off is given here; in the data, active = GI50 up to about 1.1 µM and inactive = higher.

Assays:
Assay in all cases: growth of human tumour cells (NCI), 48 h
OVCAR-5 = tested on: OVCAR-5
A549 = tested on: A549
SK-OV-3 = tested on: SK-OV-3
HOP-92 = tested on: HOP-92
HL-60 = tested on: HL-60
HCT-116 = tested on: HCT-116
EKVX = tested on: EKVX
Hs-578T = tested on: Hs-578T
SR = tested on: SR
MDA-MB-435 = tested on: MDA-MB-435
IGROV-1 = tested on: IGROV-1
NCI-H522 = tested on: NCI-H522
NCI-H460 = tested on: NCI-H460
HOP-62 = tested on: HOP-62
K562 = tested on: K562
U-251 = tested on: U-251
DU-145 = tested on: DU-145
OVCAR-3 = tested on: OVCAR-3
HT-29 = tested on: HT-29
SF-539 = tested on: SF-539

Structure (SMILES)	GI50 (OVCAR-5)	GI50 (A549)	GI50 (SK-OV-3)	GI50 (HOP-92)	GI50 (HL-60)	GI50 (HCT-116)	GI50 (EKVX)	GI50 (Hs-578T)	GI50 (SR)	GI50 (MDA-MB-435)	GI50 (IGROV-1)	GI50 (NCI-H522)	GI50 (NCI-H460)	GI50 (HOP-62)	GI50 (K562)	GI50 (U-251)	GI50 (DU-145)	GI50 (OVCAR-3)	GI50 (HT-29)	GI50 (SF-539)
NC(=O)c1cc2ccc(O)cc2o/c1=N/c1ccccc1	67.9 µM (inactive)	25.6 µM (inactive)	34.5 µM (inactive)	34 µM (inactive)	25.1 µM (inactive)	24.4 µM (inactive)	31.1 µM (inactive)	64.3 µM (inactive)	16.1 µM (inactive)	23.3 µM (inactive)	26.5 µM (inactive)	17.8 µM (inactive)	25.9 µM (inactive)	40.7 µM (inactive)	34.5 µM (inactive)	34.7 µM (inactive)	43.2 µM (inactive)	35.2 µM (inactive)	33 µM (inactive)	
CON(C(=O)OC(C)(C)C)c1ccccc1	> 100 µM (inactive)	> 100 µM (inactive)	> 100 µM (inactive)	> 100 µM (inactive)	> 100 µM (inactive)	> 100 µM (inactive)	> 100 µM (inactive)	> 100 µM (inactive)	> 100 µM (inactive)	> 100 µM (inactive)	> 100 µM (inactive)	> 100 µM (inactive)	> 100 µM (inactive)	> 100 µM (inactive)	> 100 µM (inactive)	> 100 µM (inactive)	> 100 µM (inactive)	> 100 µM (inactive)	> 100 µM (inactive)	
Cc1c(-c2ccccc2)c(C#N)c2nnn(-c3ccc([N+](=O)[O-])cc3)c(=O)n12	27.4 µM (inactive)		23.4 µM (inactive)	16.5 µM (inactive)	1.92 µM (inactive)	24.5 µM (inactive)	6.32 µM (inactive)	14.1 µM (inactive)	7.31 µM (inactive)	24.8 µM (inactive)	10.2 µM (inactive)	10.2 µM (inactive)	22.5 µM (inactive)	13.6 µM (inactive)	20.5 µM (inactive)	9.93 µM (inactive)	5.38 µM (inactive)	15.3 µM (inactive)	8.99 µM (inactive)	10.1 µM (inactive)
O=C1OC(C(O)CO)C(O)=C1O (stereo unspecified)	> 100 µM (inactive)	> 100 µM (inactive)		> 100 µM (inactive)	> 100 µM (inactive)	> 100 µM (inactive)	> 100 µM (inactive)	> 100 µM (inactive)	55.3 µM (inactive)	> 100 µM (inactive)	> 100 µM (inactive)	> 100 µM (inactive)	> 100 µM (inactive)	> 100 µM (inactive)	65.8 µM (inactive)	> 100 µM (inactive)	> 100 µM (inactive)	> 100 µM (inactive)	> 100 µM (inactive)	> 100 µM (inactive)
C=C(C)C12OC1[C@@]1(C)C(=CC2=O)CCC(O)[C@@H]1C (stereo partly specified)	8.51 µM (inactive)	1.42 µM (inactive)		16.7 µM (inactive)	1.16 µM (inactive)	1.15 µM (inactive)	1.94 µM (inactive)	1.75 µM (inactive)	1.84 µM (inactive)	3.29 µM (inactive)	0.891 µM (active)	0.782 µM (active)	0.743 µM (active)	1.4 µM (inactive)		1.14 µM (inactive)	1.05 µM (active)	3.68 µM (inactive)	1.21 µM (inactive)	1.97 µM (inactive)
Nc1nc2c(c(-c3ccccc3Cl)n1)COC/C2=C\c1ccccc1Cl	17.2 µM (inactive)		16.1 µM (inactive)	14.8 µM (inactive)	3.08 µM (inactive)	15.8 µM (inactive)	18.3 µM (inactive)	21.8 µM (inactive)	5.16 µM (inactive)	10.3 µM (inactive)	15.8 µM (inactive)	14.6 µM (inactive)	18.6 µM (inactive)	18.1 µM (inactive)	12.2 µM (inactive)	16.8 µM (inactive)	16.9 µM (inactive)	17.4 µM (inactive)		18.2 µM (inactive)
CCOC(=O)/C(=C\NC(C)(C)CO)c1nc2ccccc2[nH]1	> 100 µM (inactive)	86.5 µM (inactive)	> 100 µM (inactive)	77.4 µM (inactive)	44.5 µM (inactive)	> 100 µM (inactive)	> 100 µM (inactive)	34.4 µM (inactive)	47.3 µM (inactive)	> 100 µM (inactive)	41.5 µM (inactive)	61.7 µM (inactive)	36.1 µM (inactive)	> 100 µM (inactive)	75 µM (inactive)		> 100 µM (inactive)	> 100 µM (inactive)	88.7 µM (inactive)	> 100 µM (inactive)
